In patent US4670255A, “Hair tonic composition” (priority 1983, dated 1987):

System: testosterone 5α-reductase
Test: Determination of 5α-reductase inhibitory activity (labelled testosterone conversion)
Assay type: biochemical, rats
Protocol: Prostate gland cells of rats were crushed and a specimen of testosterone 5α-reductase was then prepared by separating microsome from the crushed liquid mixture. The conversion of testosterone to 5α-dihydrotestosterone by the use of the above-prepared enzyme specimen was monitored by radioisotopically labelled testosterone. The reaction mixture was extracted with ethyl acetate and the extract was developed twice by silica gel thin layer chromatography (solvent system, dichloromethane:cyclohexane:acetone=15:4:1). The amount of 5α-dihydrotestosterone were determined from the intensities of the radioactivity.
A 30 μl amount of a 0.05M phosphate buffer (pH=6.6) containing 0.1% of BSA (bovine serum albumin), 10 μl of an enzyme specimen, 8.5 pmol of labelled testosterone, 50 nmol of a reduced form of NADP (nicotinamide adenine dinucleotide phosphate), and 10 μl of a test sample were mixed (total amount=50 μl). The mixture was allowed to react at a temperature of 25° C. for 60 minutes.
After the completion of the reaction, the reaction mixture was extracted with ethyl acetate by adding 50 μl of ethyl acetate to the reaction mixture. The extract was developed in the same manner as mentioned above and the intensity of the radioisotope was measured by using a scintillation counter.
The above-mentioned determination was applied to the samples having various concentrations. The 5α-reductase inhibitory activity was obtained as a inhibitory rate (%) or a 50% inhibitory concentration.

Row | 5α-reductase inhibitory activity (in words) | Structure (SMILES)
1 | especially strong | CCCCCC/C=C\CCCCCCCC(=O)O [palmitoleic acid]
2 | especially strong | CCCCC/C=C\C/C=C\CCCCCCCC(=O)O [linolic acid]
3 | especially strong | CCCCCCCCCCCCCCCC(=O)O [palmitic acid]

Row | Structure (SMILES) | 5α-reductase inhibitory activity (in words)
4 | CCCCCCCC/C=C\CCCCCCCC(=O)O [oleic acid] | especially strong
